From patent US20240132485A1, “HETEROCYCLIC CULLIN RING UBIQUITIN LIGASE COMPOUNDS AND USES THEREOF” (CEMM - FORSCHUNGSZENTRUM FÜR MOLEKULARE MEDIZIN GMBH, priority 2020, published 2024) come the findings set out here.

One may read the EC50 as the concentration at which the effect is half-maximal. The DC50 is the midpoint of the concentration-degradation curve.

For one test, the system named is CCNK. In words: NanoLuc-CCNK degradation assay (HEK293T_Nluc_CCNK-tagged cells). Particulars: 4 h incubation, HEK293T_Nluc_CCNK-tagged cells; for DC50: read-out: NanoLuc-CCNK degradation DC50 Activity Class. The test is classed as cell-based. As to the method:
The assay helps to elucidate the mechanistic explanation of the cell killing effect of the compounds of the present invention. Cyclin K is fused to a nanoluciferase, light emission is measured as a proxy of Cyclin K abundance. Potency of Cyclin K degradation and cytotoxicity of KBM7 correlate extremely well, further supporting Cyclin K degradation being the main driver of the cell killing, as opposed to inhibition of CDK12 catalytic activity.
HEK293T_Nluc_CCNK-tagged cells were engineered by integrating a nanoluciferase tag at the N-terminus of the endogenous locus of CCNK using CRISPR-Cas9 technology. Briefly, 5.5 million HEK293T cells were co-transfected by PEI with a 1:1 ratio of cutting vector (sgRNA: […]) and repair template (4 μg total plasmid) as previously described (Brand and Winter, 2019). The repair sequence comprises a cassette of puromycinR-P2A-HA-Nluc-(G4S)3 (P2A: self-cleaving peptide 2A, HA: HA-tag, (G4S)3: flexible linker), surrounded by 20-nucleotide microhomologies matching the genomic locus. After 3 days of incubation, the recombinant population was selected by puromycin treatment (2 μg/ml, 5-day treatment). A monoclonal population was obtained by limiting dilution and cassette integration validated by Sanger sequencing.
HEK293T_Nluc_CCNK-tagged cells were seeded in a white opaque 384-well plate at a density of 8000 cells per well in duplicate, in full medium (Opti-MEM I+4% FBS+1% PS). Cells were treated with compounds in a 10-point titration (range: 0 to 10 μM, 1:4 dilution). After 4 h of incubation, Nano-Glo substrate (Promega), pre-diluted in serum-free medium (Opti-MEM I), was added to the cells (1:500 final dilution). The luminescence signal was directly measured using the multimode plate reader EnVision 2105 (Perkin Elmer).

The target in test [1] is T1, DDB1-CDK12/Cyclin K ternary complex (Homo sapiens, UniProt Q16531+Q9NYV4).
T1 construct: expressed in transfected cells; host or cells: HEK293T wildtype cells, transient PEI transfection
T1 sequence (Q9NYV4 whole entry): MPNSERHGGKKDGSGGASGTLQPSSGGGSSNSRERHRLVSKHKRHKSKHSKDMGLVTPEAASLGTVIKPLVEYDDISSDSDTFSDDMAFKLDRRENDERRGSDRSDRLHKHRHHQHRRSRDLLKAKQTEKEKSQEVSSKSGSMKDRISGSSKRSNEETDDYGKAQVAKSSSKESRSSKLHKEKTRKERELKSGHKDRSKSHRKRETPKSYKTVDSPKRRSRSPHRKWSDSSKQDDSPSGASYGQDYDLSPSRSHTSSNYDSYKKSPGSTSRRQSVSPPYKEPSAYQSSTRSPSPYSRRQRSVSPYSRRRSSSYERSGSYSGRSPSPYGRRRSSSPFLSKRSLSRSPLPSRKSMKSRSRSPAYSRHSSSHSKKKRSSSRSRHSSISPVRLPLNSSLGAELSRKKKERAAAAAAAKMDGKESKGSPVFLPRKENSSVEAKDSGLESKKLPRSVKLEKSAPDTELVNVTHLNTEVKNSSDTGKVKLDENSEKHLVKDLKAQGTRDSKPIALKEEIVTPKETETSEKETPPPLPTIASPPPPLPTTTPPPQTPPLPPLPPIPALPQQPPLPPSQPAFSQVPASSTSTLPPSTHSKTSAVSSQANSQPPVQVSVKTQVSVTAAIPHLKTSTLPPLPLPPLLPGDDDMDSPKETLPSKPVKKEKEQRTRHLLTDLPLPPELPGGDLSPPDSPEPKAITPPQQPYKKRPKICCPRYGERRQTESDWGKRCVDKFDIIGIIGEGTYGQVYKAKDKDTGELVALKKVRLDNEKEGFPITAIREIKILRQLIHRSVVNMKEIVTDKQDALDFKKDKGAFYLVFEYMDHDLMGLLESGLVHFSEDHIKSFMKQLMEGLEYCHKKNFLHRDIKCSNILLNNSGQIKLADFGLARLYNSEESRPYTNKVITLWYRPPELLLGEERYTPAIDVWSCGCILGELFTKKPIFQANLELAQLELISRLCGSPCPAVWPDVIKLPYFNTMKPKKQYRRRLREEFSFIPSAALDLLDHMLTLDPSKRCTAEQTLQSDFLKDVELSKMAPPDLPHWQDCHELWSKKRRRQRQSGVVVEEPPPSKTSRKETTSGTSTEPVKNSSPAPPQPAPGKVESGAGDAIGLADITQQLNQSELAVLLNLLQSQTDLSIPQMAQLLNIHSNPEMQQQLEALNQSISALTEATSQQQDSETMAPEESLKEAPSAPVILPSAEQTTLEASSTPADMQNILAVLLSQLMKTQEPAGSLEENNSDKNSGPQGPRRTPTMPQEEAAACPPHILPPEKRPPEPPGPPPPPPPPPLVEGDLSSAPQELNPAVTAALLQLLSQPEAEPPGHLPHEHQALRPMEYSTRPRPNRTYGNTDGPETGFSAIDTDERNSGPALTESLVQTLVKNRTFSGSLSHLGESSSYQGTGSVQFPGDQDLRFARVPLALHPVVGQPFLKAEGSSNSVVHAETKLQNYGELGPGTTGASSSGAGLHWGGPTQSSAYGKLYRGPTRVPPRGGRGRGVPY
T1 sequence (Q16531 whole entry): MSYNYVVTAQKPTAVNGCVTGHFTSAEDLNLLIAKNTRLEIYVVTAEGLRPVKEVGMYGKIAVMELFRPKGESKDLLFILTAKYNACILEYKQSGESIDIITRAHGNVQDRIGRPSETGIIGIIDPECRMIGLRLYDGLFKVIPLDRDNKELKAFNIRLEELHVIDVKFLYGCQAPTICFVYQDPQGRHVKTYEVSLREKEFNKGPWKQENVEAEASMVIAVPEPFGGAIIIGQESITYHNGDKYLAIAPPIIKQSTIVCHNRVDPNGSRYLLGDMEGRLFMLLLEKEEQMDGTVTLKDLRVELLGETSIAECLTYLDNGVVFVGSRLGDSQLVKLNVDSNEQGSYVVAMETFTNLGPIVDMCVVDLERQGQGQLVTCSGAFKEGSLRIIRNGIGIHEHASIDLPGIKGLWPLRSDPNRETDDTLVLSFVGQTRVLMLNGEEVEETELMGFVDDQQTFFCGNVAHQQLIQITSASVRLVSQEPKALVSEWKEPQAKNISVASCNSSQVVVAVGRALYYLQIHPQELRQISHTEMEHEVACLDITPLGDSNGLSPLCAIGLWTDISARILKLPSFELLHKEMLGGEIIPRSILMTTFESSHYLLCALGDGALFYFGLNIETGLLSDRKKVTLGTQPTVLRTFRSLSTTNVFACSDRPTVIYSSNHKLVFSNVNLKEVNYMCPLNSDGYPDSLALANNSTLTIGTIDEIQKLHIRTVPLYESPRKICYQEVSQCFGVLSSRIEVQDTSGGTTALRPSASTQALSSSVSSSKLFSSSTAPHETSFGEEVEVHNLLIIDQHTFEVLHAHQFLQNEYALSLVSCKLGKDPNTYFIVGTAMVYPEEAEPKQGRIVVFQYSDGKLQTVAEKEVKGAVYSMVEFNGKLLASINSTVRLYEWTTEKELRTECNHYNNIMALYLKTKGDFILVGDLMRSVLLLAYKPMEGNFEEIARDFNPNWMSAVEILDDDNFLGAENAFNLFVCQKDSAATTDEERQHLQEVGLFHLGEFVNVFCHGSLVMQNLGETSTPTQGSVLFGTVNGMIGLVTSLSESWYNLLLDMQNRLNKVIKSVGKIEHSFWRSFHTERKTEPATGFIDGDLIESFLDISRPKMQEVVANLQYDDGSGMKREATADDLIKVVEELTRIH
T1 sequence (O75909 whole entry partner): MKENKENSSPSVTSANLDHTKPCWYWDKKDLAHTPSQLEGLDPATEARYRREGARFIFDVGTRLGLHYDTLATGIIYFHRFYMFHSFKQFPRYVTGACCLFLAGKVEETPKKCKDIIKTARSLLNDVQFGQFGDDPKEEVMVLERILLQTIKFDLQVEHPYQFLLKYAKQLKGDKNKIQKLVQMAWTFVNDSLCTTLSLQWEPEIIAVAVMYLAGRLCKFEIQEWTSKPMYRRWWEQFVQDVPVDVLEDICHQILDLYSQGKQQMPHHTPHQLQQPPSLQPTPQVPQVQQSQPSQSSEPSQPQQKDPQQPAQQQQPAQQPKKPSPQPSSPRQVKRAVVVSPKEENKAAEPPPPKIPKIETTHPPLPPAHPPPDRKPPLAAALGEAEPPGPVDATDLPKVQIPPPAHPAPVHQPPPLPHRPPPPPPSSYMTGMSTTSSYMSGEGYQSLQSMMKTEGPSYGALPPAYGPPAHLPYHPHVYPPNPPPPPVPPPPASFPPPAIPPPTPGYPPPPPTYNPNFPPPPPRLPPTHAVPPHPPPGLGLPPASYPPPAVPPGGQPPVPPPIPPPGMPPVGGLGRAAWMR
The experiment in a line: NanoBRET fold-change assay (HaloTag_CDK12 / NanoLuc_DDB1 in HEK293T). Type of test: cell-based. As to conditions: 10 μM compound, 10 minutes. The protocol: This assay measures the interaction/recruitment of CDK12/Cyclin K to DDB1, mechanistically validating the molecular glue pharmacology.
HEK293T wildtype cells are seeded 800 k cells/well (DMEM+10% FBS+1% PS) in a 6-well plate and allowed to attach for ˜7 hours followed by a transient transfection of 1.5 μg HaloTag_CDK12 Plasmid [Table 1] and 0.15 μg NanoLuc_DDB1 plasmid [Table 1] per well using PEI. Cells are incubated at 37° C., 5% CO2, harvested after 24 hours and resuspended in assay media (Opti-MEM Reduced serum media, no phenol red, 4% FBS, 1% PS). Cells are adjusted to 2.3×10^5 cells/ml and treated with HaloTag 618 Ligand at 100 nM or DMSO. 8000 cells are seeded per well in triplicates per compound in a white-walled 384-well plate, one negative control treated with DMSO instead of HaloTag 618 Ligand is seeded in triplicates and the 384-well plate is incubated at 37° C., 5% CO2 overnight. Compound stock solutions are prepared in Opti-MEM−/− (Opti-MEM I Reduced serum media, no phenol red) at 8× and used to treat the cells at a final concentration of 1× at 10 μM. Cells and compounds are incubated for 10 minutes at room temperature followed by addition of NanoBRET Nano-Glo substrate following manufacturer's protocols. The plate is shaken for 30 sec followed by immediate measurement of donor emission (NanoBRET Blue at 460 nm) and acceptor emission (BRET Deep Red at 647 nm) for 0.5 s.
(Bioluminescence resonance energy transfer reports proximity on the nanometre scale.)

For the next test, the system named is KBM7 cells (wild-type). The experiment in a line: KBM7 CTG EC50 assay (UBE2M wild-type). Type of test: cell-based, human. Particulars: for EC50: Homo sapiens, KBM-7, 72 h incubation, CellTiter-Glo, read-out: KBM7 CTG EC50 (UBE2M wild-type) Activity Class; for Ratio UBE2M WT to KO: ratio of anti-proliferative activity in KBM7 wild-type versus UBE2M knock-out cells (fold). From the text: (§1) This is a cell viability assay to measure the desired therapeutic effect, i.e. killing of cancer cells. The UBE2M mutant cell line has impaired activity of the Cullin-RING ligase system due to a hypomorphic mutation in UBE2M, which is required for activation of these E3 ligases. By comparison with WT cells, it is possible to estimate the contribution of Cyclin K degradation (which is reduced in UBE2M mut cells) compared to kinase inhibition of CDK12 (which is unaffected in UBE2M mut cells). Since the UBE2M mutation only reduces CRL function without fully abrogating it, this assay may slightly underestimate the effect of degradation because, at high compound concentrations, degradation may still be observed.
(§2) KBM7 cells (wild-type or harboring α hypomorphic UBE2M mutation (Mayor-Ruiz et al., 2019)) were seeded in a white opaque 384-well plate at a density of 1000 cells per well in duplicate, in full medium (IMDM+10% FBS+1% penicillin-streptomycin). Cells were treated with compounds in a 10-point titration with a dilution factor of 1:4 (range: 0 to 20 μM). After 72 h of incubation, the cell viability was determined using the CellTiter-Glo® 2.0 reactant (Promega), pre-diluted 1:4 in mQ water. The luminescence signal was measured using the multimode plate reader EnVision 2105 (Perkin Elmer).
For orientation: ATP-based viability assays read luminescence as a measure of living cells.

The test system of test [2] is KBM7 cells harboring a hypomorphic UBE2M mutation. In words: KBM7 CTG EC50 assay (UBE2M knock-out). Type of test: cell-based. Particulars: Homo sapiens, KBM-7; 72 h incubation, CellTiter-Glo; read-out: KBM7 CTG EC50 (UBE2M knock-out) Activity Class.
From the text: as §1, §2

Turning to `O=C(Cc1c[nH]c2nccc(Cl)c12)Nc1ncc(C(F)(F)F)s1` [Example 3-39, 2-(4-chloro-1H-pyrrolo[2,3-b]pyridin-3-yl)-N-(5-(trifluoromethyl)thiazol-2-yl)acetamide], the “NanoLuc-CCNK degradation DC50 Activity Class” value with CCNK is given as “D (10 μM≤DC50<1.0 μM)”. For the same compound, in test [1], the “NanoBRET fold-change Activity Class” value was “B (3-4 fold increase)”. In the test with KBM7 cells (wild-type), the EC50 lay within 1 to 10 µM and the “Ratio UBE2M WT to KO” value was >4. Further, the 50% effective concentration (EC50) in test [2] is > 10 µM.

On to `O=C(Cc1cncc2ccccc12)Nc1ncc(C(F)(F)F)s1` [Example 3-34, 2-(isoquinolin-4-yl)-N-(5-(trifluoromethyl)thiazol-2-yl)acetamide], for which, in the test with CCNK, the 50% degradation concentration (DC50) was > 10 µM. Moreover, the “NanoBRET fold-change Activity Class” value in test [1] was “C (2-3 fold increase)”. For the same compound, the EC50 in the test with KBM7 cells (wild-type) was 1 to 10 µM; in test [2] it was > 10 µM. Further, the “Ratio UBE2M WT to KO” value in the test with KBM7 cells (wild-type) is recorded as >3.

With `CC(C)c1ccc(NC(=O)Cc2cn3cc(F)ccc3n2)nc1` [Example 3-61, 2-(6-fluoroimidazo[1,2-a]pyridin-2-yl)-N-(5-isopropylpyridin-2-yl)acetamide], the “NanoLuc-CCNK degradation DC50 Activity Class” value in the test with CCNK was “B (0.50 μM≤DC50<0.10 μM)”. Moreover, in test [1], the “NanoBRET fold-change Activity Class” value was “A (greater than 4-fold increase)”. For the same compound, in the test with KBM7 cells (wild-type), the EC50 is ≤ 0.25 µM and the “Ratio UBE2M WT to KO” value is on record as >20. The EC50 in test [2] is > 10 µM.

For `O=C(Cc1ccc2ccncc2c1)Nc1ncc(C(F)(F)F)s1` [Example 3-32, 2-(isoquinolin-7-yl)-N-(5-(trifluoromethyl)thiazol-2-yl)acetamide], the DC50 in the test on CCNK was ≤ 0.1 µM. Further, the “NanoBRET fold-change Activity Class” value in test [1] is “B (3-4 fold increase)”. For the same compound, the values for the concentration for a half-maximal effect (EC50) (in the test with KBM7 cells (wild-type); in test [2]) were ≤ 0.25 µM and 1 to 10 µM, respectively. For the same compound, the “Ratio UBE2M WT to KO” value with KBM7 cells (wild-type) came out at 115.9.

For `O=C(Nc1ncc(C(F)(F)F)s1)C1CC(=O)N(Cc2ccccc2)C1` (stereo not shown) [Example 3-27, 1-benzyl-5-oxo-N-(5-(trifluoromethyl)thiazol-2-yl)pyrrolidine-3-carboxamide], the DC50 in the test with CCNK was ≤ 0.1 µM. In addition, the “NanoBRET fold-change Activity Class” value in test [1] is “B (3-4 fold increase)”. Further, in the test on KBM7 cells (wild-type), the EC50 was ≤ 0.25 µM and the “Ratio UBE2M WT to KO” value is reported as >10. Further, the EC50 in test [2] is > 10 µM.

Regarding `O=C(Nc1ncc(C(F)(F)F)s1)C1CC(=O)N(c2ccccc2Cl)C1` (stereo not shown) [Example 3-20, 1-(2-chlorophenyl)-5-oxo-N-(5-(trifluoromethyl)thiazol-2-yl)pyrrolidine-3-carboxamide], the DC50 in the test with CCNK is > 10 µM. Besides, the “NanoBRET fold-change Activity Class” value in test [1] is recorded as “C (2-3 fold increase)”. Further, in the test with KBM7 cells (wild-type), the EC50 was 0.25 to 0.5 µM and the “Ratio UBE2M WT to KO” value is >10. In test [2], the EC50 is > 10 µM.

In the case of `O=C(Cc1cccc2ncccc12)Nc1ncc(C(F)(F)F)s1` [Example 3-13, 2-(quinolin-5-yl)-N-(5-(trifluoromethyl)thiazol-2-yl)acetamide], in the test on CCNK, the DC50 was > 10 µM. Moreover, the “NanoBRET fold-change Activity Class” value in test [1] is reported as “B (3-4 fold increase)”. Moreover, in the test with KBM7 cells (wild-type), the EC50 fell in the range of 1 to 10 µM and the “Ratio UBE2M WT to KO” value was >4. Also, the EC50 in test [2] was > 10 µM.

For the compound `Cc1ccc2ncn(CC(=O)Nc3ncc(C(F)(F)F)s3)c2c1` [Example 3-15, 2-(6-methyl-1H-benzo[d]imidazol-1-yl)-N-(5-(trifluoromethyl)thiazol-2-yl)acetamide], the DC50 with CCNK was > 10 µM. In test [1], the “NanoBRET fold-change Activity Class” value is “D (1-2 fold increase)”. In the test on KBM7 cells (wild-type), the EC50 fell in the range of 1 to 10 µM and the “Ratio UBE2M WT to KO” value is recorded as >4. Also, in test [2], the EC50 is > 10 µM.

As to `O=C(Cc1cccc2cnccc12)Nc1ncc(C(F)(F)F)s1` [Example 3-30, 2-(isoquinolin-5-yl)-N-(5-(trifluoromethyl)thiazol-2-yl)acetamide], in the test on CCNK, the DC50 was > 10 µM. For the same compound, the “NanoBRET fold-change Activity Class” value in test [1] is “C (2-3 fold increase)”. In the test with KBM7 cells (wild-type), the EC50 was > 10 µM and the “Ratio UBE2M WT to KO” value was >1. Further, the EC50 in test [2] was > 10 µM.

In the case of `O=C(Nc1ncc(C(F)(F)F)s1)C1CC(=O)N(c2cc(F)cc(F)c2)C1` (stereo not shown) [Example 3-21, 1-(3,5-difluorophenyl)-5-oxo-N-(5-(trifluoromethyl)thiazol-2-yl)pyrrolidine-3-carboxamide], the “NanoLuc-CCNK degradation DC50 Activity Class” value in the test on CCNK is “B (0.50 μM≤DC50<0.10 μM)”. In addition, the “NanoBRET fold-change Activity Class” value in test [1] is reported as “B (3-4 fold increase)”. Further, in the test with KBM7 cells (wild-type), the EC50 is ≤ 0.25 µM and the “Ratio UBE2M WT to KO” value came to 44.5. Besides, the EC50 in test [2] lay in the range of 1 to 10 µM.

For the compound `CC(C(=O)Nc1ncc(C(F)(F)F)s1)c1cc2ccccc2s1` (stereo not shown) [Example 3-11, 2-(benzo[b]thiophen-2-yl)-N-(5-(trifluoromethyl)thiazol-2-yl)propanamide], the DC50 with CCNK is ≤ 0.1 µM. Also, in test [1], the “NanoBRET fold-change Activity Class” value was “A (greater than 4-fold increase)”. In the test with KBM7 cells (wild-type), the EC50 is ≤ 0.25 µM and the “Ratio UBE2M WT to KO” value is recorded as 9.4. Also, the EC50 in test [2] is ≤ 0.25 µM.

Consider `O=C(Nc1ncc(C(F)(F)F)s1)C1CC(=O)N(c2ccc(F)cc2)C1` (stereo not shown) [Example 3-26, 1-(4-fluorophenyl)-5-oxo-N-(5-(trifluoromethyl)thiazol-2-yl)pyrrolidine-3-carboxamide], for which the DC50 in the test on CCNK is > 10 µM. Moreover, the “NanoBRET fold-change Activity Class” value in test [1] was “C (2-3 fold increase)”. In the test on KBM7 cells (wild-type), the EC50 lay in the range of 1 to 10 µM and the “Ratio UBE2M WT to KO” value is >5. Moreover, in test [2], the EC50 was > 10 µM.

`O=C(Cc1cn2cc(F)ccc2n1)Nc1cc(Cl)[nH]n1` [Example 3-60, N-(5-chloro-1H-pyrazol-3-yl)-2-(6-fluoroimidazo[1,2-a]pyridin-2-yl)acetamide]: in the test on CCNK, the DC50 is > 10 µM. For the same compound, the “NanoBRET fold-change Activity Class” value in test [1] was “C (2-3 fold increase)”. Besides, in the test with KBM7 cells (wild-type), the EC50 was 1 to 10 µM and the “Ratio UBE2M WT to KO” value is given as >9. Besides, in test [2], the EC50 is > 10 µM.

As for `O=C(Nc1ncc(C(F)(F)F)s1)C1CC(=O)N(c2ccc(F)c(F)c2)C1` (stereo not shown) [Example 3-23, 1-(3,4-difluorophenyl)-5-oxo-N-(5-(trifluoromethyl)thiazol-2-yl)pyrrolidine-3-carboxamide], the DC50 in the test on CCNK is > 10 µM. For the same compound, the “NanoBRET fold-change Activity Class” value in test [1] is recorded as “B (3-4 fold increase)”. In the test on KBM7 cells (wild-type), the EC50 was ≤ 0.25 µM and the “Ratio UBE2M WT to KO” value is >10. Besides, the EC50 in test [2] is > 10 µM.
